Values after ≈ are worked out from the molar mass of the structure shown.
Legend:
Type in all cases: cell-based
S. aureus (ATCC 29213) = test: Antibacterial susceptibility testing (MIC, broth microdilution or agar dilution), S. aureus; details: Staphylococcus aureus, ATCC29213; read-out: S. aureus (ATCC 29213) minimal inhibitory concentration (MIC)
Outline: (§1)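 MICs by CLSI (M7-A7) broth microdilution or agar dilution, against reference ATCC strains as listed.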

E. faecalis (ATCC 29212) = test: Antibacterial susceptibility testing (MIC, broth microdilution or agar dilution), E. faecalis; details: Enterococcus faecalis, ATCC29212; read-out: E. faecalis (ATCC 29212) minimal inhibitory concentration (MIC)
Description: (§2) Compounds of the invention were tested for antimicrobial activity by susceptibility testing in liquid or on solid media. MICs for compounds against each strain were determined by the broth microdilution or agar dilution method according to the guidelines of the Clinical Laboratories and Standards Institute, formerly the National Committee for Clinical Laboratory Standards (Clinical Laboratories and Standards Institute. Methods for Dilution Antimicrobial Susceptibility Tests for Bacteria That Grow Aerobically; Approved Standard—Seventh Edition. Document M7-A7. CLSI, Wayne, Pa., 2006; Clinical Laboratories and Standards Institute. The Gram positive bacterial strains tested include S. aureus (Staphylococcus aureus (Isolate ID ATCC 29213)), E. faecalis (Enterococcus faecalis (Isolate ID ATCC 29212)) and S. pyogenes (Streptococcus pyogenes (Isolate ID ATCC 51339)). The Gram negative bacterial strains tested include H. influenzae (Haemophilus influenzae (Isolate ID ATCC 49247)).

S. pyogenes (ATCC 51339) = test: Antibacterial susceptibility testing (MIC, broth microdilution or agar dilution), S. pyogenes; details: Streptococcus pyogenes, ATCC51339; read-out: S. pyogenes (ATCC 51339) minimal inhibitory concentration (MIC)
Outline: as §1

[1] = system: H. influenzae (ATCC 49247); test: Antibacterial susceptibility testing (MIC, broth microdilution or agar dilution), H. influenzae; details: Haemophilus influenzae, ATCC49247; read-out: H. influenzae (ATCC 49247) minimal inhibitory concentration (MIC)
Description: as §2

SMILES	MIC (S. aureus (ATCC 29213))	MIC (E. faecalis (ATCC 29212))	MIC (S. pyogenes (ATCC 51339))	MIC [1]
CCNC(=O)Nc1cc(Nc2cccnc2)c(C(=O)Nc2cccnc2)cn1 [Compound 19, 6-(3-ethylureido)-N-(pyridin-3-yl)-4-(pyridin-3-ylamino)nicotinamide]	8 µg/mL (≈ 21.2 µM)	≤ 1 µg/mL	≤ 1 µg/mL	–
CCNC(=O)Nc1cc(Nc2ccccc2)c(C(=O)Nc2cccc(Cl)c2)cn1 [Compound 4]	≤ 1 µg/mL	≤ 1 µg/mL	4 µg/mL (≈ 9.76 µM)	–
CCNC(=O)Nc1cc(Nc2ccccc2)c(C(=O)Nc2cccc(C)c2)cn1 [Compound 18, 6-(3-ethylureido)-4-(phenylamino)-N-m-tolylnicotinamide]	≤ 1 µg/mL	≤ 1 µg/mL	2 µg/mL (≈ 5.14 µM)	–
CCNC(=O)Nc1cc(Nc2cccnc2)c(C(=O)Nc2ccccc2)cn1 [Compound 13, 6-(3-ethylureido)-N-phenyl-4-(pyridin-3-ylamino)nicotinamide]	≤ 1 µg/mL	≤ 1 µg/mL	≤ 1 µg/mL	–
CCNC(=O)Nc1cc(Nc2ccccc2)c(C(=O)Nc2ccn(C)c(=O)c2)cn1 [Compound 134, 6-[(Ethylcarbamoyl)amino]-N-(1-methyl-2-oxo-1,2-dihydropyridin-4-yl)-4-(phenylamino)pyridine-3-carboxamide]	4 µg/mL (≈ 9.84 µM)	–	–	8 µg/mL (≈ 19.7 µM)
CCNC(=O)Nc1cc(Nc2ccc(F)c(OC)c2)c(C(=O)Nc2ccc(CC(C)(C)C(=O)O)cc2)cn1 [Compound 184, 3-{4-[({6-[(ethylcarbamoyl)amino]-4-[(4-fluoro-3-methoxyphenyl)amino]pyridin-3-yl}carbonyl)amino]phenyl}-2,2-dimethylpropanoic acid]	≤ 1 µg/mL	–	–	4 µg/mL (≈ 7.64 µM)
CCNC(=O)Nc1cc(Nc2ccccc2)c(C(=O)Nc2ccc([C@@H]3C[C@H]3C(=O)OCC)cc2)cn1 [Compound 180]	–	–	–	2 µg/mL (≈ 4.1 µM)
CCNC(=O)Nc1cc(Nc2ccccc2Cl)c(C(=O)Nc2ccc(CC(C)(C)C(=O)O)cc2)cn1 [Compound 183, 3-{4-[({4-[(2-chlorophenyl)amino]-6-[(ethylcarbamoyl)amino]pyridin-3-yl}carbonyl)amino]phenyl}-2,2-dimethylpropanoic acid]	≤ 1 µg/mL	–	–	4 µg/mL (≈ 7.84 µM)
CCNC(=O)Nc1cc(Nc2ccc(C(F)(F)F)cc2)c(C(=O)Nc2ccc(CCC(=O)O)cc2)cn1 [Compound 176, 3-[4-[[6-(ethylcarbamoylamino)-4-[4-(trifluoromethyl)anilino]pyridine-3-carbonyl]amino]phenyl]propanoic acid]	≤ 1 µg/mL	–	–	4 µg/mL (≈ 7.76 µM)
CCNC(=O)Nc1cc(Nc2ccccc2)c(C(=O)Nc2ccc(/C=C/C(=O)O)cc2)cn1 [Compound 137, (2E)-3-{4-[({6-[(ethylcarbamoyl)amino]-4-(phenylamino)pyridin-3-yl}carbonyl)amino]phenyl}prop-2-enoic acid]	2 µg/mL (≈ 4.49 µM)	–	–	4 µg/mL (≈ 8.98 µM)
CCNC(=O)Nc1cc(Nc2cccnc2)c(C(=O)Nc2ccc(CC(C)(C)C(=O)O)cc2)cn1 [Compound 171, 3-{4-[({6-[(ethylcarbamoyl)amino]-4-(pyridin-3-ylamino)pyridin-3-yl}carbonyl)amino]phenyl}-2,2-dimethylpropanoic acid]	4 µg/mL (≈ 8.39 µM)	–	–	4 µg/mL (≈ 8.39 µM)
CCNC(=O)Nc1cc(Nc2cccc(C)c2)c(C(=O)Nc2cccc(C)c2)cn1 [Compound 1, 6-(3-ethylureido)-N-m-tolyl-4-(m-tolylamino)nicotinamide]	2 µg/mL (≈ 4.96 µM)	≤ 1 µg/mL	16 µg/mL (≈ 39.7 µM)	–
CCNC(=O)Nc1cc(Nc2cccc(OC)c2)c(C(=O)Nc2ccc(CC(C)(C)C(=O)O)cc2)cn1 [Compound 178, 3-{4-[({6-[(ethylcarbamoyl)amino]-4-[(3-methoxyphenyl)amino]pyridin-3-yl}carbonyl)amino]phenyl}-2,2-dimethylpropanoic acid]	≤ 1 µg/mL	–	–	4 µg/mL (≈ 7.91 µM)
CCNC(=O)Nc1cc(Nc2ccc(F)cc2)c(C(=O)Nc2ccc(CC(C)(C)C(=O)O)cc2)cn1 [Compound 175, 3-{4-[({6-[(ethylcarbamoyl)amino]-4-[(4-fluorophenyl)amino]pyridin-3-yl}carbonyl)amino]phenyl}-2,2-dimethylpropanoic acid]	≤ 1 µg/mL	–	–	4 µg/mL (≈ 8.1 µM)
CCNC(=O)Nc1cc(NCc2cccnc2)c(C(=O)Nc2ccccc2)cn1 [Compound 25, 6-(3-ethylureido)-N-phenyl-4-(pyridin-3-ylmethylamino)nicotinamide]	–	2 µg/mL (≈ 5.12 µM)	8 µg/mL (≈ 20.5 µM)	–
CCNC(=O)Nc1cc(Nc2ccnc(OC)c2)c(C(=O)Nc2cccnc2)cn1 [Compound 163]	≤ 1 µg/mL	–	–	8 µg/mL (≈ 19.6 µM)

SMILES	MIC (S. aureus (ATCC 29213))	MIC (E. faecalis (ATCC 29212))	MIC (S. pyogenes (ATCC 51339))	MIC [1]
CCNC(=O)Nc1cc(Nc2ccccc2)c(C(=O)Nc2ccc(CCC(=O)OC)nc2)cn1 [Compound 179, methyl 3-{5-[({6-[(ethylcarbamoyl)amino]-4-(phenylamino)pyridin-3-yl}carbonyl)amino]pyridin-2-yl}propanoate]	≤ 1 µg/mL	–	–	8 µg/mL (≈ 17.3 µM)
CCNC(=O)Nc1cc(Nc2ccccc2)c(C(=O)Nc2cnc(NCC3(C(=O)O)CCC3)nc2)cn1 [Compound 168, 1-[({5-[({6-[(ethylcarbamoyl)amino]-4-(phenylamino)pyridin-3-yl}carbonyl)amino]pyrimidin-2-yl}amino)methyl] cyclobutanecarboxylic acid]	2 µg/mL (≈ 3.96 µM)	–	–	8 µg/mL (≈ 15.9 µM)
CCNC(=O)Nc1cc(Nc2ccccc2)c(C(=O)Nc2cccnc2)cn1 [Compound 20, 6-(3-ethylureido)-4-(phenylamino)-N-(pyridin-3-yl)nicotinamide]	≤ 1 µg/mL	≤ 1 µg/mL	≤ 1 µg/mL	–
CCNC(=O)Nc1cc(Nc2ccccc2)c(C(=O)NCc2cccnc2)cn1 [Compound 28, 6-(3-ethylureido)-4-(phenylamino)-N-(pyridin-3-ylmethyl)nicotinamide]	–	≤ 1 µg/mL	≤ 1 µg/mL	–
CCNC(=O)Nc1cc(Nc2ccc(Cl)cc2)c(C(=O)Nc2ccc(CCC(=O)OC)cc2)cn1 [Compound 148, methyl 3-{4-[({4-[(4-chlorophenyl)amino]-6-[(ethylcarbamoyl)amino]pyridin-3-yl}carbonyl)amino]phenyl}propanoate]	≤ 1 µg/mL	–	–	4 µg/mL (≈ 8.07 µM)
CCNC(=O)Nc1cc(Nc2ccc(OC)c(F)c2)c(C(=O)Nc2ccc(CC(C)(C)C(=O)O)cc2)cn1 [Compound 190, 3-{4-[({6-[(ethylcarbamoyl)amino]-4-[(3-fluoro-4-methoxyphenyl)amino]pyridin-3-yl}carbonyl)amino]phenyl}-2,2-dimethylpropanoic acid]	≤ 1 µg/mL	–	–	2 µg/mL (≈ 3.82 µM)
CCNC(=O)Nc1cc(Nc2ccccc2)c(C(=O)Nc2ccc([C@@H]3C[C@H]3C(=O)O)cc2)cn1 [Compound 169]	2 µg/mL (≈ 4.35 µM)	–	–	2 µg/mL (≈ 4.35 µM)
CCNC(=O)Nc1cc(Nc2ccc(Cl)cc2)c(C(=O)Nc2ccc(CCC(=O)O)cc2)cn1 [Compound 149, 3-{4-[({4-[(4-chlorophenyl)amino]-6-[(ethylcarbamoyl)amino]pyridin-3-yl}carbonyl)amino]phenyl}propanoic acid]	≤ 1 µg/mL	–	–	4 µg/mL (≈ 8.3 µM)
CCNC(=O)Nc1cc(Nc2ccccc2)c(C(=O)Nc2ccc(NC(C)=O)nc2)cn1 [Compound 24, N-(6-acetamidopyridin-3-yl)-6-(3-ethylureido)-4-(phenylamino)nicotinamide]	2 µg/mL (≈ 4.61 µM)	≤ 1 µg/mL	≤ 1 µg/mL	–
CCNC(=O)Nc1cc(Nc2ccc(Cl)cc2)c(C(=O)Nc2ccc(CC(C)(C)C(=O)O)cc2)cn1 [Compound 160, 3-{4-[({4-[(4-chlorophenyl)amino]-6-[(ethylcarbamoyl)amino]pyridin-3-yl}carbonyl)amino]phenyl}-2,2-dimethylpropanoic acid]	≤ 1 µg/mL	–	–	8 µg/mL (≈ 15.7 µM)
CCNC(=O)Nc1cc(Nc2ccccc2)c(C(=O)Nc2ccc(N3CCOCC3)nc2)cn1 [Compound 23, 6-(3-ethylureido)-N-(6-morpholinopyridin-3-yl)-4-(phenylamino)nicotinamide]	2 µg/mL (≈ 4.33 µM)	≤ 1 µg/mL	≤ 1 µg/mL	–
CCNC(=O)Nc1cc(Nc2ccccc2)c(C(=O)Nc2ccccc2)cn1 [Compound 17, 6-(3-ethylureido)-N-phenyl-4-(phenylamino)nicotinamide]	≤ 1 µg/mL	≤ 1 µg/mL	2 µg/mL (≈ 5.33 µM)	–
CCNC(=O)Nc1cc(NCc2cccnc2)c(C(=O)Nc2cccnc2)cn1 [Compound 26, 6-(3-ethylureido)-N-(pyridin-3-yl)-4-(pyridin-3-ylmethylamino)nicotinamide]	–	8 µg/mL (≈ 20.4 µM)	8 µg/mL (≈ 20.4 µM)	–
CCNC(=O)Nc1cc(Nc2cc(Cl)cc(Cl)c2)c(C(=O)Nc2ccc(CCC(=O)OCC)cc2)cn1 [Compound 225, ethyl 3-{4-[({4-[(3,5-dichlorophenyl)amino]-6-[(ethylcarbamoyl)amino]pyridin-3-yl}carbonyl)amino]phenyl}propanoate]	4 µg/mL (≈ 7.35 µM)	≤ 1 µg/mL	–	–
CCNC(=O)Nc1cc(Nc2ccccc2)c(C(=O)Nc2ccc(C(=O)NC)cc2)cn1 [Compound 213, 6-[(ethylcarbamoyl)amino]-N-[4-(methylcarbamoyl)phenyl]-4-(phenylamino)pyridine-3-carboxamide]	4 µg/mL (≈ 9.25 µM)	≤ 1 µg/mL	–	–

Source: US9060515B2, “Heterocyclic urea compounds” (BIOTA EUROPE LTD, priority 2011, dated 2015)
